Laboratory results reported in patent US20200360391A1, “Medicinal Composition for Treating Intractable Heart Disease” (Osaka University, priority 2016, published 2020).
“Also recorded” adds a separate entry of the source. Counter-ions that a name gives are not always drawn.

Columns and labels:
rats [1] = settings: cited from earlier work
[2] = cited from earlier work
rats [3] = settings: subcutaneous administration in rats; cited from earlier work
[4] = test system: rat coronary artery complete ischemia model; test: Model of ischemia (MI) by rat coronary artery complete ligation (Tests 1 and 2): echocardiography, body weight; settings: for value of change in E.F. compared with E.F. on Day 1 / value of change in F.S. compared with F.S. on Day 1: B-MS 100, C-MS 50, F-MS 30 mg/kg s.c. single injection
[5] = test system: spontaneous dilated cardiomyopathy (J2N-k) hamster model; test: Spontaneous dilated cardiomyopathy (J2N-k) hamster model, 8-week administration from 20 weeks of age (Tests 1-3): echocardiography, body weight; settings: for LVIDs 8 W: hydrochloride hydrate
In short: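 Male J2N-k δ-glycan-deficient hamsters (delivered at 18 weeks; 2-week acclimation) were dosed by oral gavage twice daily for 8 weeks in 0.5% CMC-Na (G in distilled water; 5 mL/kg) at human-equivalent doses, e.g. cilostazol 1.7 mg/kg. Camostat PLGA preparation was given 10 mg/kg s.c. every 4 weeks. Echocardiographic EF/FS changes from baseline were assessed at 4 and 8 weeks versus vehicle.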

[6] = test system: spontaneous dilated cardiomyopathy J2N-k baby hamsters; test: J2N-k baby hamsters (Test 4): administration alone or in combination, echocardiography, body weight; format: in vivo, hamster; settings: for % FS / EF (%) / value of change in E.F. compared with E.F. at 0 W / value of change in F.S. compared with F.S. at 0 W: Test 4, dose O 0.17, C 3.3, E 15, orally twice daily, mean ± S.D.
Experimental: δ-Glycan-deficient spontaneous dilated cardiomyopathy (J2N-k) male hamsters (Japan SLC, Inc.) were delivered at 4 weeks of age. After a 1-week quarantine/acclimation, echocardiography was performed. The hamsters were grouped by stratified random assignment based on the EF values and the body weights so that each administration group was equalized.
Each test substance was individually administered twice daily (at an interval of 8 hours or more) by oral gavage, and echocardiography was performed 4 and 8 weeks after the start of administration (before dissection). Differences from the value before the start of administration (at the time of grouping) (amount of change: A) in each group were examined, and the cardiac function (EF value, FS %, etc.) was compared with that in the vehicle group (Group 1).
The doses were set according to the dose-setting basis in Test 3, and similarly orally administered twice daily. Effects of administration of combinations of two or three of carvedilol, which is a β-blocker widely used clinically, and ozagrel and/or pirfenidone were examined.

[7] = MI Test 1, NOAEL doses, 7 Day, mean ± S.D.
[8] = MI Test 1, NOAEL doses, 14 Day, mean ± S.D.
[9] = MI Test 1, NOAEL doses, 29 Day, mean ± S.D.
[10] = MI Test 2, 14 Day, B 150, G 5, I 30, C 10 mg/kg p.o. b.i.d., mean ± S.D.
[11] = MI Test 2, 29 Day, B 150, G 5, I 30, C 10 mg/kg p.o. b.i.d., mean ± S.D.

## O=C(O)/C=C/c1ccc(Cn2ccnc2)cc1 [Compound C, Ozagrel hydrochloride hydrate]
Rats [1]; rats, 3 months
  No-observed-effect level: 150 mg/kg
Rats [1]; repeated oral administration in rats, duration per compound
  Dose at which toxic findings were observed: ≥ 500 mg/kg
[2]; camostat 600 mg daily, ozagrel 400 mg daily
  Safety at the daily amount: no safety problems except for slightly prolonged bleeding time
[2]; human, in vivo
  Abdominal / stomach / gastric discomfort cases: 0.1%
  Bleeding tendency cases: 0.1%
  Elevated AST (GOT) and/or ALT (GPT) / liver enzyme cases: 0.3%
  Itching / pruritus cases: 0.2%
  Nausea cases (cilostazol: nausea/vomiting): 0.3%
  Rash cases: 0.2%
[2]; share of cases evaluated for safety
  Cases with side effects (including laboratory test value abnormality): 2.0%
Rats [3]
  LD50: 2049 mg/kg
[4]; MI Test 1, 28-day repeated oral administration b.i.d., NOAEL-based doses
  Action on left ventricular systolic function: suppression action on the deterioration of left ventricular systolic function
[4]; MI Test 1, NOAEL doses, 1 Day (grouping), mean ± S.D.
  Body weight: 234.8 ± 8.3 g
[4]; [7]
  % FS: value of change compared with the value on Day 1: 0%
  Body weight: 240.0 ± 9.3 g
  EF: value of change compared with the value on Day 1: -1%
[4]; [8]
  % FS: value of change compared with the value on Day 1: -1%
  Body weight: 261.2 ± 10.8 g
  EF: value of change compared with the value on Day 1: -2%
[4]; MI Test 1, NOAEL doses, 21 Day, mean ± S.D.
  Body weight: 278.9 ± 12.5 g
[4]; [9]
  % FS: value of change compared with the value on Day 1: -3%
  Body weight: 299.8 ± 13.9 g
  EF: value of change compared with the value on Day 1: -5%
[4]; MI Test 2, Day 14 and Day 29
  EF actual measured value and/or amount of change compared with control: significantly higher
[4]; MI Test 2, oral b.i.d. 4 weeks or single subcutaneous administration
  Values of cardiac function (EF, FS %) compared with control: significantly higher
[4]; MI Test 2, 1 Day, B 150, G 5, I 30, C 10 mg/kg p.o. b.i.d., B MS 100, C MS 50, I MS 30 mg/kg s.c. single injection, mean
  Body weight: 240.1 g
[4]; MI Test 2, 7 Day, B 150, G 5, I 30, C 10 mg/kg p.o. b.i.d., B MS 100, C MS 50, I MS 30 mg/kg s.c. single injection, mean
  Body weight: 245.7 g
[4]; MI Test 2, 14 Day, B 150, G 5, I 30, C 10 mg/kg p.o. b.i.d., B MS 100, C MS 50, I MS 30 mg/kg s.c. single injection, mean
  Body weight: 273.3 g
[4]; [10]
  value of change in E.F. compared with E.F. on Day 1: <−4.9 ± 2.3> %
  value of change in F.S. compared with F.S. on Day 1: <−2.7 ± 1.3> %
[4]; MI Test 2, 21 Day, B 150, G 5, I 30, C 10 mg/kg p.o. b.i.d., B MS 100, C MS 50, I MS 30 mg/kg s.c. single injection, mean
  Body weight: 292.8 g
[4]; MI Test 2, 29 Day, B 150, G 5, I 30, C 10 mg/kg p.o. b.i.d., B MS 100, C MS 50, I MS 30 mg/kg s.c. single injection, mean
  Body weight: 310.4 g
[4]; [11]
  value of change in E.F. compared with E.F. on Day 1: <−10.0 ± 3.9> %
  value of change in F.S. compared with F.S. on Day 1: <−5.3 ± 2.1> %
[5]; Test 1, p.o. b.i.d.
  LVIDd 4 W: 7.1 mm
  LVIDd 8 W: 7.4 mm
  LVIDs 4 W: 5.9 mm
  LVIDs 8 W: 6.1 mm
[5]; Test 1, p.o. b.i.d., listed as ozagrel
  LVIDs 8 W: significantly lower
[5]; Test 3, clinical dose
  Cardiac function (EF, FS %) actual measured value or change rate compared with control, 4 W value: significant cardiac function improvement effect
[5]; Test 3, clinical dose, summary
  Cardiac function improvement effect: cardiac function improvement effect was observed
[5]; mg/kg twice per day, oral preparation
  Minimal effective dose (screening 2): 3.3 mg/kg
[6]; Test 4, clinical doses p.o. b.i.d., 8 weeks, hydrochloride hydrate
  Action on decrease in left ventricular systolic function: significant suppression action on a decrease in left ventricular systolic function; also recorded: action of significantly suppressing a decrease in left ventricular systolic function
[6]; Test 4, p.o. b.i.d., clinical dose
  Body weight 3 W: 85.4 g
[6]; 0 W (start of administration)
  % FS: 39.1 ± 2.7%
  EF (%): 77.3 ± 2.9%
[6]; 4 W
  % FS: 34.9 ± 1.5%
  EF (%): 72.3 ± 2.0%
  value of change in E.F. compared with E.F. at 0 W: <−5.0 ± 1.4> %
  value of change in F.S. compared with F.S. at 0 W: <−4.2 ± 1.4> %
[6]; 8 W
  % FS: 30.7 ± 2.0%
  EF (%): 66.6 ± 2.8%
  value of change in E.F. compared with E.F. at 0 W: <−10.7 ± 2.0> %
  value of change in F.S. compared with F.S. at 0 W: <−8.4 ± 1.6> %
